# Measurements reported in PubChem BioAssay (NCI).
#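 Tested at 5 concentrations; 48 h exposure; 96-well plates; endpoints linearly interpolated, else capped at highest concentration. GI50 is the concentration that inhibits growth by half. At the TGI there is no net growth.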
# Experiments:
# Assay in all cases: NCI-60 cell line screen, 48 h
# SK-OV-3 ovarian = tested on: SK-OV-3 ovarian
# COLO 205 colon = tested on: COLO 205 colon
# HS 578T breast = tested on: HS 578T breast
# A498 renal = tested on: A498 renal
# HCT-15 colon = tested on: HCT-15 colon
# MCF7 breast = tested on: MCF7 breast
# SK-MEL-28 melanoma = tested on: SK-MEL-28 melanoma
# HOP-62 NSCLC = tested on: HOP-62 NSCLC
# NCI-H522 lung = tested on: NCI-H522 lung
# MDA-MB-435 = tested on: MDA-MB-435
# HOP-92 NSCLC = tested on: HOP-92 NSCLC
# ACHN renal = tested on: ACHN renal
# NCI-H23 lung = tested on: NCI-H23 lung
# MOLT-4 leukemia = tested on: MOLT-4 leukemia
# NCI/ADR-RES ovarian = tested on: NCI/ADR-RES ovarian
# HT29 colon = tested on: HT29 colon
# SR leukemia = tested on: SR leukemia
# CAKI-1 renal = tested on: CAKI-1 renal
# SN12C renal = tested on: SN12C renal
# MALME-3M melanoma = tested on: MALME-3M melanoma
# HCT-116 colon = tested on: HCT-116 colon
# M14 melanoma = tested on: M14 melanoma
# SK-MEL-2 melanoma = tested on: SK-MEL-2 melanoma
# UO-31 renal = tested on: UO-31 renal
# OVCAR-3 ovarian = tested on: OVCAR-3 ovarian
# HL-60(TB) leukemia = tested on: HL-60(TB) leukemia
# OVCAR-4 ovarian = tested on: OVCAR-4 ovarian
# SNB-75 CNS = tested on: SNB-75 CNS
# T-47D breast = tested on: T-47D breast
# NCI-H226 lung = tested on: NCI-H226 lung
# SK-MEL-5 melanoma = tested on: SK-MEL-5 melanoma
# RPMI-8226 leukemia = tested on: RPMI-8226 leukemia
# OVCAR-8 ovarian = tested on: OVCAR-8 ovarian
# UACC-257 melanoma = tested on: UACC-257 melanoma
# SF-268 CNS = tested on: SF-268 CNS
# U251 CNS = tested on: U251 CNS
# SW-620 colon = tested on: SW-620 colon
# K-562 leukemia = tested on: K-562 leukemia
# TK-10 renal = tested on: TK-10 renal
# NCI-H460 lung = tested on: NCI-H460 lung
# PC-3 prostate = tested on: PC-3 prostate
# MDA-MB-231 breast = tested on: MDA-MB-231 breast
# OVCAR-5 ovarian = tested on: OVCAR-5 ovarian
# HCC-2998 colon = tested on: HCC-2998 colon
# BT-549 breast = tested on: BT-549 breast
# EKVX NSCLC = tested on: EKVX NSCLC
# RXF 393 renal = tested on: RXF 393 renal
# UACC-62 melanoma = tested on: UACC-62 melanoma
# A549 NSCLC = tested on: A549 NSCLC
# LOX IMVI melanoma = tested on: LOX IMVI melanoma
# KM12 colon = tested on: KM12 colon
# IGROV1 ovarian = tested on: IGROV1 ovarian
# DU-145 prostate = tested on: DU-145 prostate
# SNB-19 CNS = tested on: SNB-19 CNS
# SF-539 CNS = tested on: SF-539 CNS
# SF-295 CNS = tested on: SF-295 CNS
# 786-0 renal = tested on: 786-0 renal
structure (smiles),measurement,setting,value
Oc1c(C(Nc2cccc3ccccc23)c2ccccc2)ccc2cccnc12 (centres undefined),GI50,SK-OV-3 ovarian,5.9 µM
same,TGI,SK-OV-3 ovarian,> 100 µM
same,GI50,COLO 205 colon,4.17 µM
same,TGI,COLO 205 colon,17.7 µM
same,GI50,HS 578T breast,7.37 µM
same,TGI,HS 578T breast,> 100 µM
same,GI50,A498 renal,3.27 µM
same,TGI,A498 renal,23.9 µM
same,GI50,HCT-15 colon,3.78 µM
same,TGI,HCT-15 colon,62.1 µM
same,GI50,MCF7 breast,3.2 µM
same,TGI,MCF7 breast,> 100 µM
same,GI50,SK-MEL-28 melanoma,4.14 µM
same,TGI,SK-MEL-28 melanoma,> 100 µM
same,GI50,HOP-62 NSCLC,4.9 µM
same,TGI,HOP-62 NSCLC,> 100 µM
same,GI50,NCI-H522 lung,2.74 µM
same,TGI,NCI-H522 lung,7.82 µM
same,GI50,MDA-MB-435,5 µM
same,TGI,MDA-MB-435,> 100 µM
same,GI50,HOP-92 NSCLC,2.95 µM
same,TGI,HOP-92 NSCLC,36.3 µM
same,GI50,ACHN renal,3.55 µM
same,TGI,ACHN renal,28.6 µM
same,GI50,NCI-H23 lung,4.04 µM
same,TGI,NCI-H23 lung,27.5 µM
same,GI50,MOLT-4 leukemia,2.41 µM
same,TGI,MOLT-4 leukemia,> 100 µM
same,GI50,NCI/ADR-RES ovarian,2.17 µM
same,TGI,NCI/ADR-RES ovarian,8.29 µM
same,GI50,HT29 colon,5.57 µM
same,TGI,HT29 colon,> 100 µM
same,GI50,SR leukemia,2.76 µM
same,TGI,SR leukemia,22.5 µM
same,GI50,CAKI-1 renal,2.15 µM
same,TGI,CAKI-1 renal,6.54 µM
same,GI50,SN12C renal,4.1 µM
same,TGI,SN12C renal,> 100 µM
same,GI50,MALME-3M melanoma,5.17 µM
same,TGI,MALME-3M melanoma,25.7 µM
same,GI50,HCT-116 colon,2.86 µM
same,TGI,HCT-116 colon,17.9 µM
same,GI50,M14 melanoma,2.01 µM
same,TGI,M14 melanoma,8.48 µM
same,GI50,SK-MEL-2 melanoma,6.58 µM
same,TGI,SK-MEL-2 melanoma,> 100 µM
same,GI50,UO-31 renal,1.62 µM
same,TGI,UO-31 renal,23 µM
same,GI50,OVCAR-3 ovarian,3.79 µM
same,TGI,OVCAR-3 ovarian,19.1 µM
same,GI50,HL-60(TB) leukemia,1.93 µM
same,TGI,HL-60(TB) leukemia,8.4 µM
same,GI50,OVCAR-4 ovarian,2.3 µM
same,TGI,OVCAR-4 ovarian,> 100 µM
same,GI50,SNB-75 CNS,5.67 µM
same,TGI,SNB-75 CNS,> 100 µM
same,GI50,T-47D breast,4.75 µM
same,TGI,T-47D breast,58.3 µM
same,GI50,NCI-H226 lung,2.17 µM
same,TGI,NCI-H226 lung,8.06 µM
same,GI50,SK-MEL-5 melanoma,2.1 µM
same,TGI,SK-MEL-5 melanoma,5.99 µM
same,GI50,RPMI-8226 leukemia,2.36 µM
same,TGI,RPMI-8226 leukemia,> 100 µM
same,GI50,OVCAR-8 ovarian,3.22 µM
same,TGI,OVCAR-8 ovarian,39.3 µM
same,GI50,UACC-257 melanoma,2.88 µM
same,TGI,UACC-257 melanoma,9.28 µM
same,GI50,SF-268 CNS,3.04 µM
same,TGI,SF-268 CNS,28.7 µM
same,GI50,U251 CNS,2.42 µM
same,TGI,U251 CNS,16 µM
same,GI50,SW-620 colon,3.73 µM
same,TGI,SW-620 colon,24 µM
same,GI50,K-562 leukemia,3.8 µM
same,TGI,K-562 leukemia,> 100 µM
same,GI50,TK-10 renal,11 µM
same,TGI,TK-10 renal,45.8 µM
same,GI50,NCI-H460 lung,2.07 µM
same,TGI,NCI-H460 lung,18.5 µM
same,GI50,PC-3 prostate,5.16 µM
same,TGI,PC-3 prostate,> 100 µM
same,GI50,MDA-MB-231 breast,12 µM
same,TGI,MDA-MB-231 breast,70.8 µM
same,GI50,OVCAR-5 ovarian,7.32 µM
same,TGI,OVCAR-5 ovarian,> 100 µM
same,GI50,HCC-2998 colon,4.56 µM
same,TGI,HCC-2998 colon,> 100 µM
same,GI50,BT-549 breast,2.07 µM
same,TGI,BT-549 breast,14.5 µM
same,GI50,EKVX NSCLC,2.93 µM
same,TGI,EKVX NSCLC,41.1 µM
same,GI50,RXF 393 renal,3.12 µM
same,TGI,RXF 393 renal,19.1 µM
same,GI50,UACC-62 melanoma,2.82 µM
same,TGI,UACC-62 melanoma,39.6 µM
same,GI50,A549 NSCLC,2.95 µM
same,TGI,A549 NSCLC,> 100 µM
same,GI50,LOX IMVI melanoma,1.92 µM
same,TGI,LOX IMVI melanoma,13.7 µM
same,GI50,KM12 colon,5.03 µM
same,TGI,KM12 colon,> 100 µM
same,GI50,IGROV1 ovarian,3.79 µM
same,TGI,IGROV1 ovarian,11 µM
same,GI50,DU-145 prostate,7.22 µM
same,TGI,DU-145 prostate,> 100 µM
same,GI50,SNB-19 CNS,5.64 µM
same,TGI,SNB-19 CNS,> 100 µM
same,GI50,SF-539 CNS,4.56 µM
same,TGI,SF-539 CNS,21.4 µM
same,GI50,SF-295 CNS,2.96 µM
same,TGI,SF-295 CNS,> 100 µM
same,GI50,786-0 renal,3.37 µM
same,TGI,786-0 renal,76.3 µM
